Patent EP0819124B1, “AZOLE COMPOUNDS WITH ANTIMYCOTIC ACTIVITY FOR HUMAN AND VETERINARY USE” (ZAMBON GROUP S.p.A., priority 1995, dated 1996)
Values after ≈ are worked out from the molar mass of the structure shown. Read-outs that look alike come from different tables or passages of the source.

Experiments:
T.mentagrophytes = assay: In vitro antimycotic activity, macromethod of scalar broth dilutions (SDB); assay type: cell-based, Trychophyton mentagrophytes; conditions: Trichophyton mentagrophytes, 168 h
Protocol: (§1) The determination of the activity inhibiting the growth of mycetes was evaluated by the macromethod of scalar brothdilutions in geometrical progression (M.R. McGinnis and M.G. Rinaldi, "Antifungal drugs: mechanisms of action, drug resistance, susceptibility testing and assay of activity in biological fluids", in Antibiotic in Laboratory Medicine, Ed. V. Lorian, Baltimora 1991).
(§2) As culture media Yeast Nitrogen Base broth (YNB) and Sabouraud Dextrose broth (SDB) were used for yeasts and moulds, respectively.
(§3) The results obtained in SDB (after incubation at 28°C for 7 days) were expressed as minimum inhibiting concentrations (MIC) the growth of mycetes, while those obtained in YNB (after incubation at 35°C for 48 hours) were expressed as concentrations able to inhibit at 50% (IC50) the growth of the yeast.
(§4) As reference compounds Fluconazole, Itraconazole and Genaconazole were used.

C. albicans 1040 = assay: In vitro antimycotic activity, macromethod of scalar broth dilutions (YNB); assay type: cell-based, Candida albicans
Protocol: as §1, §2, §3, §4

C. neoformans = assay: as above; assay type: cell-based; conditions: Cryptococcus neoformans
Protocol: as §1, §2, §3, §4

A. fumigatus = assay: In vitro antimycotic activity, macromethod of scalar broth dilutions (SDB); assay type: cell-based; conditions: Aspergillus fumigatus, 168 h
Protocol: as §1, §2, §3, §4

Candida albicans 1040 = assay: In vivo antimycotic activity in mice experimentally infected by C. albicans, oral route; parameters: species or system Charles River white mice (CD1 strain); conditions: for PD50 at 8th day / PD50 at 14th day: oral route, probits analysis; for PD50 at 8th day: 8 days from the infection; for PD50 at 14th day: 14 days from the infection; for antimycotic activity in comparison with the compounds of formula II, statement in words: test not named, only in vivo data are printed for R1 and R2
Protocol: Charles River white mice (CD1 strain) weighing from 23 to 25 g, normo-feeded with standard diet and water ad libitum were used.
A suspension (0.2 ml containing 2.5x10^7 cells/ml) of Candida albicans 1040 in physiologic solution was injected to each animal by venous route. Immediately after the infection and after 4, 24 and 48 hours, the animals received by oral route (in arabic gum at 2%) doses increasing in a geometrical progression of the compound to be tested. The infected group was used as control.
The observation of the mortality of the mice was prolonged up to 14 days. From the number of survived animals for each concentration the average protective dose (DP50) was calculated by probits analysis (L.Lison - "Statistica applicata alla biologia sperimentale. La programmazione dell'esperimento e l'analisi dei risultati" - Casa Editrice Ambrosiana, 1961).
Compounds R1 and R2 were used as comparative compounds.
Fluconazole and Itraconazole were used as reference compounds.

[1] = T.mentagrophytes, SDB, incubation at 28°C for 7 days, read-out: MIC
[2] = Candida albicans, C. albicans 1040, YNB, incubation at 35°C for 48 hours, read-out: IC50
[3] = C. neoformans, YNB, incubation at 35°C for 48 hours, read-out: IC50
[4] = A. fumigatus, SDB, incubation at 28°C for 7 days, read-out: MIC

Row | Compound | MIC (T.mentagrophytes; [1]) | IC50 (C. albicans 1040; [2]) | IC50 (C. neoformans; [3]) | MIC (A. fumigatus; [4]) | PD50 at 8th day (Candida albicans 1040) | PD50 at 14th day (Candida albicans 1040) | % percentage of survival after day 3 (Candida albicans 1040; mice infected by C. albicans, dose 25 mg/kg/os, day 3) | % percentage of survival after day 6 (Candida albicans 1040; mice infected by C. albicans, dose 25 mg/kg/os, day 6) | antimycotic activity in comparison with the compounds of formula II, statement in words (Candida albicans 1040) | MIC (T.mentagrophytes) | IC50 (C. albicans 1040; Candida albicans, 1040, 48 h) | IC50 (C. neoformans; 48 h) | MIC (A. fumigatus)
1 | CC(COC(F)(F)C(F)F)C(O)(Cn1cncn1)c1ccc(Cl)cc1 (racemic) [Compound 4, (±)-1-(1H-1,2,4-triazolyl)-2-hydroxy-2-(4-chlorophenyl)-3-methyl-4-(1,1,2,2-tetrafluoroethoxy)butane] | 4 µg/mL (≈ 10.5 µM) | 0.0312 µg/mL (≈ 0.0817 µM) | 0.5 µg/mL (≈ 1.31 µM) | > 128 µg/mL | 0.31 mg/kg/os | 1.29 mg/kg/os |  |  |  |  |  |  | 
2 | CC(C)(COC(F)(F)C(F)C(F)(F)F)C(O)(Cn1cncn1)c1ccc(F)cc1F (racemic) [Compound 9] | 2 µg/mL (≈ 4.47 µM) | 0.0156 µg/mL (≈ 0.0349 µM) | 0.125 µg/mL (≈ 0.279 µM) | > 128 µg/mL | 0.89 mg/kg/os | 1.57 mg/kg/os |  |  |  |  |  |  | 
3 | CC(C)(COC(F)(F)C(F)F)C(O)(Cn1cncn1)c1ccc(Cl)cc1Cl (racemic) [Compound 8, (±)-1-(1H-1,2,4-triazolyl)-2-hydroxy-2-(2,4-dichlorophenyl)-3,3-dimethyl-4-(1,1,2,2-tetrafluoroethoxy)butane] | 0.25 µg/mL (≈ 0.581 µM) | 0.0312 µg/mL (≈ 0.0725 µM) | 0.0156 µg/mL (≈ 0.0363 µM) | > 4 µg/mL |  |  |  |  |  |  |  |  | 
4 | CC(C)(COCC(F)(F)C(F)F)C(O)(Cn1cncn1)c1ccc(F)cc1F (racemic) [Compound 10, (±)-1-(1H-1,2,4-triazolyl)-2-hydroxy-2-(2,4-difluorophenyl)-3,3-dimethyl-4-(2,2,3,3-tetrafluoropropoxy)butane] | 0.5 µg/mL (≈ 1.22 µM) | 0.0156 µg/mL (≈ 0.0379 µM) | 0.0625 µg/mL (≈ 0.152 µM) | 8 µg/mL (≈ 19.4 µM) |  |  |  |  |  |  |  |  | 
5 | CCC(OC(F)(F)C(F)F)C(C)C(O)(Cn1cncn1)c1ccc(Cl)cc1Cl (racemic) [Compound 2, (±)-1-(1H-1,2,4-triazolyl)-2-hydroxy-2-(2,4-dichlorophenyl)-3-methyl-4-(1,1,2,2-tetrafluoroethoxy)hexane] | 2 µg/mL (≈ 4.5 µM) | 0.0312 µg/mL (≈ 0.0702 µM) | 0.125 µg/mL (≈ 0.281 µM) | 4 µg/mL (≈ 9 µM) |  |  | 100% | 100% |  |  |  |  | 
6 | (±)-1-(1H-1,2,4-triazolyl)-2-hydroxy-2-(2,4-difluorophenyl)-3,3-dimethyl-4-ethoxy-butane [Compound R1, reference compound] |  |  |  |  | >4 mg/kg/os | >4 mg/kg/os |  |  | substantially inactive |  |  |  | 
7 | CC(C)(COC(F)(F)F)C(O)(Cn1cncn1)c1ccc(F)cc1F (racemic) [Compound 12, (±)-1-(1H-1,2,4-triazolyl)-2-hydroxy-2-(2,4-difluorophenyl)-3,3-dimethyl-4-trifluoromethoxy-butane] | 0.125 µg/mL (≈ 0.342 µM) | 0.0156 µg/mL (≈ 0.0427 µM) | 0.0156 µg/mL (≈ 0.0427 µM) | 4 µg/mL (≈ 10.9 µM) | 1.09 mg/kg/os | 1.39 mg/kg/os |  |  |  |  |  |  | 
8 | (±)-1-(1H-1,2,4-triazolyl)-2-hydroxy-2-(2,4-difluorophenyl)-3-(2,2,3,3-tetrafluoropropoxy)butane [Compound R2, reference compound] |  |  |  |  | >4 mg/kg/os | >4 mg/kg/os |  |  | substantially inactive |  |  |  | 
9 | CCC(COC(F)(F)C(F)F)C(O)(Cn1cncn1)c1ccc(F)cc1F (racemic) [Compound 7, (±)-1-(1H-1,2,4-triazolyl)-2-hydroxy-2-(2,4-difluorophenyl)-3-ethyl-4-(1,1,2,2-tetrafluoroethoxy)butane nitrate] |  |  |  |  | 1.5 mg/kg/os | 2.19 mg/kg/os |  |  |  | 0.5 µg/mL | 0.0312 µg/mL | 0.125 µg/mL | 16 µg/mL
10 | CC(COC(F)(F)C(F)F)C(O)(Cn1cncn1)c1ccc(F)cc1F (racemic) [Compound 6, (±)-1-(1H-1,2,4-triazolyl)-2-hydroxy-2-(2.4-difluorophenyl)-3-methyl-4-(1,1,2,2-tetrafluoroethoxy)butane] | 0.5 µg/mL (≈ 1.3 µM) | 0.0312 µg/mL (≈ 0.0814 µM) | 0.0625 µg/mL (≈ 0.163 µM) | 16 µg/mL (≈ 41.7 µM) | 0.42 mg/kg/os | 1.10 mg/kg/os |  |  |  |  |  |  | 
